“Also recorded” adds a separate entry of the source. Where a name gives a salt, the structure may show the parent alone.
Experiments:
Format in all cases: cell-based, human
FFAR2 signaling [1] = assay: cAMP-Glo assay, forskolin-induced cAMP in SK-N-SH cells; settings: 10 μM compound, 10 μM forskolin
Method: FFAR2 is a Gi/o signaling receptor, which reduces cytosolic cAMP (Falomir-Lockhart et al., 2019). To determine the FFAR2 signaling activating potential of selected compounds, the cAMP-Glo™ Assay was used to measure intracellular cAMP. SK-N-SH cells (1×10^3 cells per well) were plated in a white 96-well plate for 24 h and then treated with 10 μM compounds and 10 μM forskolin (a positive control) dissolved in induction buffer. The cAMP levels were detected using a Luminescence Microplate Reader.

FFAR2 signaling [2] = assay: Western blot of phospho-ERK1/2 in SK-N-SH cells (FFAR2 signal activation); settings: 10 μM, 30 min
Method: To determine the FFAR2 signal activating property of selected compounds, SK-N-SH cells were treated with 10 μM of shortlisted compounds for 30 min at 37° C. and harvested for total protein extraction. […] After sonication, cell extracts were centrifuged at 8,000×g for 10 min at 4° C., and the supernatant was separated in a fresh tube. The total protein concentration of the supernatant was measured using a BCA protein assay kit. An equal amount of total protein (45 μg) from each sample was dissolved in loading buffer and loaded in 4% stacking gel and 10% separating SDS-PAGE gel and resolved at 100 V. Proteins were transferred on a 0.22 μm PVDF membrane and blots were developed with anti-ERK1/2, anti-phosphoERK1/2, ubiquitin (P4D1), and Aβ (6E10) primary antibodies followed by their secondary antibodies and bands were visualized using the Pierce™ Fast Western Blot Kit, ECL Substrate acquired using Syngene Pxi. Band densities were also quantified using NIH ImageJ software. β-actin was used as an internal control.

SK-N-SH cells = assay: Aβ-induced neurotoxicity, MTT viability assay; settings: 10 μM CATPB, 25 μM Aβ
Method: To determine the impact of FFAR2 inhibition on Aβ-induced neuronal cell toxicity, the MTT viability assay was performed (Ronicke et al., 2008). SK-N-SH cells (1×10^3 cells per well) were plated in a 96-well plate containing DMEM medium supplemented with 10% FBS and 1% antibiotics and grown at 37° C. for 24 h. Then, media was removed, and cells were washed with PBS before being replenished with DMEM media containing 1% FBS and 10 μM FFAR2 inhibitor (CATPB, Tocris) and incubated at 37° C. for 2 h. Then, cells were treated with Aβ 25-32 peptide (25 μM, Sigma) and incubated for 4 h. Afterward, the media was replaced with 100 μl of fresh media, and 10 μl of MTT reagent (5 mg/ml in phosphate buffer [pH 7.2]) was added and mixed in each well before an additional 4 h incubation. Then, DMSO (50 μl) was added in each well and mixed thoroughly to dissolve formazan crystals. The absorbance was measured at 570 nm.

Row | Compound | cAMP upon Forskolin-stimulation, ascending order (FFAR2 signaling [1]) | descending order of phospho-ERK1/2 levels (FFAR2 signaling [2]) | Aβ-induced cell death / cell viability under FFAR2 inhibition (SK-N-SH cells)
1 | C=C1C2CCC(C2)C1(C)C (centres unmarked) [Camphene] | Fenchol<Carvamenthenol<α-Terpineol<Carene<Pentanone<Octopamine<Camphene | Fenchol>Octopamine>Carvamenthenol>Camphene>Pentanone>Synephrine>Leucinamide>Carene>α-Terpineol>Breneol>L-Fenchone>D-Fenchone>Norpseudoephedrine HCl | 
2 | CC1(C)C2CCC1(C)C(O)C2 (centres unmarked) [Breneol] |  | Fenchol>Octopamine>Carvamenthenol>Camphene>Pentanone>Synephrine>Leucinamide>Carene>α-Terpineol>Breneol>L-Fenchone>D-Fenchone>Norpseudoephedrine HCl | 
3 | CC1(C)C(=O)[C@@]2(C)CCC1C2 [D-Fenchone] |  | Fenchol>Octopamine>Carvamenthenol>Camphene>Pentanone>Synephrine>Leucinamide>Carene>α-Terpineol>Breneol>L-Fenchone>D-Fenchone>Norpseudoephedrine HCl | 
4 | NCC(O)c1ccc(O)cc1 (centres unmarked) [Octopamine] | Fenchol<Carvamenthenol<α-Terpineol<Carene<Pentanone<Octopamine<Camphene | Fenchol>Octopamine>Carvamenthenol>Camphene>Pentanone>Synephrine>Leucinamide>Carene>α-Terpineol>Breneol>L-Fenchone>D-Fenchone>Norpseudoephedrine HCl | 
5 | CC(C)C[C@H](N)C(N)=O [Leucinamide] |  | Fenchol>Octopamine>Carvamenthenol>Camphene>Pentanone>Synephrine>Leucinamide>Carene>α-Terpineol>Breneol>L-Fenchone>D-Fenchone>Norpseudoephedrine HCl | 
6 | C[C@H](N)[C@@H](O)c1ccccc1 [Norpseudoephedrine HCl] |  | Fenchol>Octopamine>Carvamenthenol>Camphene>Pentanone>Synephrine>Leucinamide>Carene>α-Terpineol>Breneol>L-Fenchone>D-Fenchone>Norpseudoephedrine HCl | 
7 | CC1(C)C(=O)[C@@]2(C)CC[C@H]1C2 [L-Fenchone] |  | Fenchol>Octopamine>Carvamenthenol>Camphene>Pentanone>Synephrine>Leucinamide>Carene>α-Terpineol>Breneol>L-Fenchone>D-Fenchone>Norpseudoephedrine HCl | 
8 | CNCC(O)c1ccc(O)cc1 (centres unmarked) [Synephrine] |  | Fenchol>Octopamine>Carvamenthenol>Camphene>Pentanone>Synephrine>Leucinamide>Carene>α-Terpineol>Breneol>L-Fenchone>D-Fenchone>Norpseudoephedrine HCl | 
9 | CC1=CCC(C(C)(C)O)CC1 (stereo not drawn) [α-Terpineol] | Fenchol<Carvamenthenol<α-Terpineol<Carene<Pentanone<Octopamine<Camphene | Fenchol>Octopamine>Carvamenthenol>Camphene>Pentanone>Synephrine>Leucinamide>Carene>α-Terpineol>Breneol>L-Fenchone>D-Fenchone>Norpseudoephedrine HCl | 
10 | O=C(O)C[C@H](Cc1ccc(C(F)(F)F)cc1)NC(=O)Cc1cccc(Cl)c1 [CATPB, reference compound] |  |  | further reduced cell viability; also recorded: further exacerbated Aβ-induced cell death
11 | Carene | Fenchol<Carvamenthenol<α-Terpineol<Carene<Pentanone<Octopamine<Camphene | Fenchol>Octopamine>Carvamenthenol>Camphene>Pentanone>Synephrine>Leucinamide>Carene>α-Terpineol>Breneol>L-Fenchone>D-Fenchone>Norpseudoephedrine HCl | 
12 | Carvamenthenol | Fenchol<Carvamenthenol<α-Terpineol<Carene<Pentanone<Octopamine<Camphene | Fenchol>Octopamine>Carvamenthenol>Camphene>Pentanone>Synephrine>Leucinamide>Carene>α-Terpineol>Breneol>L-Fenchone>D-Fenchone>Norpseudoephedrine HCl | 

Reference: patent US12447135B2 (University of South Florida, priority 2021, dated 2025)
